Measurements published in US7138361B2, “Herbicidal heterocycles” (E. I. du Pont de Nemours and Company, priority 2000, dated 2006).

What was measured:
Test in all cases: Test C preemergence
Assay type in all cases: in vivo
Sunflower [1] = settings: Rate 250 g/ha, scale 0 to 100, 0 no effect, 100 complete control
Nightshade [2] = settings: Rate 500 g/ha, visual evaluation after 12 to 14 days
kochia (Kochia scoparia) = settings: for Plant response rating (0 to 100), Kochia: Rate 500 g/ha, visual evaluation after 12 to 14 days
Method in brief: (§1)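 Each compound was dissolved in a non-phytotoxic solvent system containing a surfactant and sprayed either on freshly planted seeds (preemergence) or on young plants, 2 to 18 cm high (postemergence). Ratings after 12 to 14 greenhouse days ran from 0, no effect, to 100, complete control.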

[3] = tested on: johnsongrass (Sorghum halepense); settings: for Plant response rating (0 to 100), Johnsongrass: Rate 500 g/ha, visual evaluation after 12 to 14 days
Method in brief: as §1

[4] = tested on: woolly cupgrass (Eriochloa villosa); settings: for Plant response rating (0 to 100), Cupgrass, Woolly: Rate 500 g/ha, visual evaluation after 12 to 14 days
Method in brief: as §1

[5] = tested on: morningglory (Ipomoea hederacea); settings: for Plant response rating (0 to 100), Morningglory: Rate 500 g/ha, visual evaluation after 12 to 14 days
Method in brief: as §1

corn (Zea mays) = settings: for Plant response rating (0 to 100), Corn: Rate 500 g/ha, visual evaluation after 12 to 14 days
Method in brief: as §1

[6] = tested on: bermudagrass (Cynodon dactylon); settings: for Plant response rating (0 to 100 where 0 is no effect and 100 is complete control), Bermudagrass: Rate 500 g/ha, visual evaluation after 12 to 14 days
Method in brief: as §1

Nightshade [7] = tested on: Nightshade
[8] = tested on: cocklebur (Xanthium strumarium); settings: for Plant response rating (0 to 100), Cocklebur: Rate 500 g/ha, visual evaluation after 12 to 14 days
Method in brief: as §1

[9] = tested on: Surinam grass (Brachiaria decumbens); settings: for Plant response rating (0 to 100), Surinam grass: Rate 500 g/ha, visual evaluation after 12 to 14 days
Method in brief: as §1

[10] = tested on: goosegrass (Eleusine indica); settings: for Plant response rating (0 to 100), Goosegrass: Rate 500 g/ha, visual evaluation after 12 to 14 days
Method in brief: as §1

[11] = tested on: crabgrass (Digitaria sanguinalis); settings: for Plant response rating (0 to 100), Crabgrass: Rate 500 g/ha, visual evaluation after 12 to 14 days
Method in brief: as §1

[12] = tested on: pigweed (Amaranthus retroflexus); settings: for Plant response rating (0 to 100), Pigweed: Rate 500 g/ha, visual evaluation after 12 to 14 days
Method in brief: as §1

[13] = tested on: lambsquarters (Chenopodium album); settings: for Plant response rating (0 to 100), Lambsquarters: Rate 500 g/ha, visual evaluation after 12 to 14 days
Method in brief: as §1

[14] = tested on: velvetleaf (Abutilon theophrasti); settings: for Plant response rating (0 to 100), Velvetleaf: Rate 500 g/ha, visual evaluation after 12 to 14 days
Method in brief: as §1

[15] = tested on: giant foxtail (Setaria faberii); settings: for Plant response rating (0 to 100), Foxtail, Giant: Rate 500 g/ha, visual evaluation after 12 to 14 days
Method in brief: as §1

[16] = tested on: common ragweed (Ambrosia elatior); settings: for Plant response rating (0 to 100), Ragweed, Common: Rate 500 g/ha, visual evaluation after 12 to 14 days
Method in brief: as §1

soybean (Glycine max) = settings: for Plant response rating (0 to 100), Soybean: Rate 500 g/ha, visual evaluation after 12 to 14 days
Method in brief: as §1

[17] = tested on: yellow nutsedge (Cyperus esculentus); settings: for Plant response rating (0 to 100), Nutsedge: Rate 500 g/ha, visual evaluation after 12 to 14 days
Method in brief: as §1

Sunflower [18] = settings: Rate 125 g/ha; scale 0 to 100, 0 no effect, 100 complete control
Sunflower [19] = settings: Rate 62 g/ha, scale 0 to 100
[20] = Rate 125 g/ha, scale 0 to 100, 0 no effect, 100 complete control
[21] = preemergence, Rate 62 g/ha, scale 0 to 100
[22] = preemergence, Rate 250 g/ha, scale 0 to 100, 0 no effect, 100 complete control
[23] = Rate 250 g/ha, scale 0 to 100, 0 no effect, 100 complete control

CCC(C)c1ccn(C2CCN(c3ccc(Br)c(OC)c3)C2=O)n1 (centres unmarked) [Compound 142]
Plant response rating, Sunflower (Sunflower [1]): 80
Plant response rating (0 to 100), Nightshade (Nightshade [2]): 100
Plant response rating, Kochia (kochia (Kochia scoparia); [20]): 100
Plant response rating, Kochia (kochia (Kochia scoparia); [21]): 100
Plant response rating (0 to 100), Kochia (kochia (Kochia scoparia); preemergence): 100
Plant response rating, Kochia (kochia (Kochia scoparia); [22]): 100
Plant response rating, Johnsongrass [3, 20]: 0
Plant response rating, Johnsongrass [3, 21]: 0
Plant response rating (0 to 100), Johnsongrass ([3]; preemergence): 100
Plant response rating, Johnsongrass [3, 22]: 100
Plant response rating, Cupgrass, Woolly [4, 20]: 100
Plant response rating, Cupgrass, Woolly [4, 21]: 90
Plant response rating (0 to 100), Cupgrass, Woolly ([4]; preemergence): 100
Plant response rating, Cupgrass, Woolly [4, 22]: 100
Plant response rating, Morningglory [5, 20]: 100
Plant response rating, Morningglory [5, 21]: 90
Plant response rating (0 to 100), Morningglory ([5]; preemergence): 100
Plant response rating, Morningglory [5, 22]: 100
Plant response rating, Corn (corn (Zea mays); [20]): 0
Plant response rating, Corn (corn (Zea mays); [21]): 0
Plant response rating (0 to 100), Corn (corn (Zea mays); preemergence): 10
Plant response rating, Corn (corn (Zea mays); [22]): 0
Plant response rating, Bermudagrass [6, 20]: 100
Plant response rating, Bermudagrass [6, 21]: 100
Plant response rating (0 to 100 where 0 is no effect and 100 is complete control), Bermudagrass ([6]; preemergence): 100
Plant response rating, Bermudagrass [6, 22]: 100
Plant response rating, Nightshade (Nightshade [7]; Rate 62 g/ha, scale 0 to 100): 90
Plant response rating, Nightshade (Nightshade [7]; [20]): 100
Plant response rating, Nightshade (Nightshade [7]; [23]): 100
Plant response rating, Cocklebur [8, 20]: 30
Plant response rating, Cocklebur [8, 21]: 0
Plant response rating (0 to 100), Cocklebur ([8]; preemergence): 60
Plant response rating, Cocklebur [8, 22]: 30
Plant response rating, Surinam grass [9, 20]: 0
Plant response rating, Surinam grass [9, 21]: 0
Plant response rating (0 to 100), Surinam grass ([9]; preemergence): 100
Plant response rating, Surinam grass [9, 22]: 50
Plant response rating, Goosegrass [10, 20]: 100
Plant response rating, Goosegrass [10, 21]: 100
Plant response rating (0 to 100), Goosegrass ([10]; preemergence): 100
Plant response rating, Goosegrass [10, 22]: 100
Plant response rating, Crabgrass [11, 20]: 100
Plant response rating, Crabgrass [11, 21]: 100
Plant response rating (0 to 100), Crabgrass ([11]; preemergence): 100
Plant response rating, Crabgrass [11, 22]: 100
Plant response rating, Pigweed [12, 20]: 100
Plant response rating, Pigweed [12, 21]: 100
Plant response rating (0 to 100), Pigweed ([12]; preemergence): 100
Plant response rating, Pigweed [12, 22]: 100
Plant response rating, Lambsquarters [13, 20]: 100
Plant response rating, Lambsquarters [13, 21]: 100
Plant response rating (0 to 100), Lambsquarters ([13]; preemergence): 100
Plant response rating, Lambsquarters [13, 22]: 100
Plant response rating, Velvetleaf [14, 20]: 90
Plant response rating, Velvetleaf [14, 21]: 10
Plant response rating (0 to 100), Velvetleaf ([14]; preemergence): 100
Plant response rating, Velvetleaf [14, 22]: 100
Plant response rating, Foxtail, Giant [15, 20]: 100
Plant response rating, Foxtail, Giant [15, 21]: 100
Plant response rating (0 to 100), Foxtail, Giant ([15]; preemergence): 100
Plant response rating, Foxtail, Giant [15, 22]: 100
Plant response rating, Ragweed, Common [16, 20]: 100
Plant response rating, Ragweed, Common [16, 21]: 0
Plant response rating (0 to 100), Ragweed, Common ([16]; preemergence): 100
Plant response rating, Ragweed, Common [16, 22]: 100
Plant response rating, Soybean (soybean (Glycine max); [20]): 70
Plant response rating, Soybean (soybean (Glycine max); [21]): 30
Plant response rating (0 to 100), Soybean (soybean (Glycine max); preemergence): 100
Plant response rating, Soybean (soybean (Glycine max); [22]): 100
Plant response rating, Nutsedge [17, 20]: 0
Plant response rating, Nutsedge [17, 21]: 0
Plant response rating (0 to 100), Nutsedge ([17]; preemergence): 20
Plant response rating, Nutsedge [17, 22]: 0
Plant response rating, Sunflower (Sunflower [18]): 20
Plant response rating, Sunflower (Sunflower [19]): 10

CCC(CC)c1ccn(C2CCN(c3ccc(Br)c(OC)c3)C2=O)n1 (centres unmarked) [Compound 143]
Plant response rating, Sunflower (Sunflower [1]): 80
Plant response rating (0 to 100), Nightshade (Nightshade [2]): 100
Plant response rating, Kochia (kochia (Kochia scoparia); [20]): 100
Plant response rating, Kochia (kochia (Kochia scoparia); [21]): 100
Plant response rating (0 to 100), Kochia (kochia (Kochia scoparia); preemergence): 100
Plant response rating, Kochia (kochia (Kochia scoparia); [22]): 100
Plant response rating, Johnsongrass [3, 20]: 60
Plant response rating, Johnsongrass [3, 21]: 0
Plant response rating (0 to 100), Johnsongrass ([3]; preemergence): 90
Plant response rating, Johnsongrass [3, 22]: 90
Plant response rating, Cupgrass, Woolly [4, 20]: 100
Plant response rating, Cupgrass, Woolly [4, 21]: 90
Plant response rating (0 to 100), Cupgrass, Woolly ([4]; preemergence): 100
Plant response rating, Cupgrass, Woolly [4, 22]: 100
Plant response rating, Morningglory [5, 20]: 100
Plant response rating, Morningglory [5, 21]: 30
Plant response rating (0 to 100), Morningglory ([5]; preemergence): 100
Plant response rating, Morningglory [5, 22]: 100
Plant response rating, Corn (corn (Zea mays); [20]): 30
Plant response rating, Corn (corn (Zea mays); [21]): 30
Plant response rating (0 to 100), Corn (corn (Zea mays); preemergence): 30
Plant response rating, Corn (corn (Zea mays); [22]): 30
Plant response rating, Bermudagrass [6, 20]: 100
Plant response rating, Bermudagrass [6, 21]: 100
Plant response rating (0 to 100 where 0 is no effect and 100 is complete control), Bermudagrass ([6]; preemergence): 100
Plant response rating, Bermudagrass [6, 22]: 100
Plant response rating, Nightshade (Nightshade [7]; Rate 62 g/ha, scale 0 to 100): 100
Plant response rating, Nightshade (Nightshade [7]; [20]): 100
Plant response rating, Nightshade (Nightshade [7]; [23]): 100
Plant response rating, Cocklebur [8, 20]: 50
Plant response rating (0 to 100), Cocklebur ([8]; preemergence): 55
Plant response rating, Cocklebur [8, 22]: 50
Plant response rating, Surinam grass [9, 20]: 0
Plant response rating, Surinam grass [9, 21]: 0
Plant response rating (0 to 100), Surinam grass ([9]; preemergence): 70
Plant response rating, Surinam grass [9, 22]: 70
Plant response rating, Goosegrass [10, 20]: 100
Plant response rating, Goosegrass [10, 21]: 100
Plant response rating (0 to 100), Goosegrass ([10]; preemergence): 100
Plant response rating, Goosegrass [10, 22]: 100
Plant response rating, Crabgrass [11, 20]: 100
Plant response rating, Crabgrass [11, 21]: 100
Plant response rating (0 to 100), Crabgrass ([11]; preemergence): 100
Plant response rating, Crabgrass [11, 22]: 100
Plant response rating, Pigweed [12, 20]: 100
Plant response rating, Pigweed [12, 21]: 100
Plant response rating (0 to 100), Pigweed ([12]; preemergence): 100
Plant response rating, Pigweed [12, 22]: 100
Plant response rating, Lambsquarters [13, 20]: 100
Plant response rating, Lambsquarters [13, 21]: 100
Plant response rating (0 to 100), Lambsquarters ([13]; preemergence): 100
Plant response rating, Lambsquarters [13, 22]: 100
Plant response rating, Velvetleaf [14, 20]: 70
Plant response rating, Velvetleaf [14, 21]: 70
Plant response rating (0 to 100), Velvetleaf ([14]; preemergence): 100
Plant response rating, Velvetleaf [14, 22]: 90
Plant response rating, Foxtail, Giant [15, 20]: 100
Plant response rating, Foxtail, Giant [15, 21]: 100
Plant response rating (0 to 100), Foxtail, Giant ([15]; preemergence): 100
Plant response rating, Foxtail, Giant [15, 22]: 100
Plant response rating, Ragweed, Common [16, 20]: 100
Plant response rating, Ragweed, Common [16, 21]: 90
Plant response rating (0 to 100), Ragweed, Common ([16]; preemergence): 100
Plant response rating, Ragweed, Common [16, 22]: 100
Plant response rating, Soybean (soybean (Glycine max); [20]): 80
Plant response rating, Soybean (soybean (Glycine max); [21]): 70
Plant response rating (0 to 100), Soybean (soybean (Glycine max); preemergence): 100
Plant response rating, Soybean (soybean (Glycine max); [22]): 80
Plant response rating, Nutsedge [17, 20]: 0
Plant response rating, Nutsedge [17, 21]: 0
Plant response rating (0 to 100), Nutsedge ([17]; preemergence): 0
Plant response rating, Nutsedge [17, 22]: 0
Plant response rating, Sunflower (Sunflower [18]): 80
Plant response rating, Sunflower (Sunflower [19]): 60
